From ChEMBL document CHEMBL1134390, “Comparative molecular field analysis of dopamine D4 receptor antagonists including 3-[4-(4-chlorophenyl)piperazin-1-ylmethyl]pyrazolo[1,5-a]pyridine (FAUC 113), 3-[4-(4-chlorophenyl)piperazin-1-ylmethyl]-1H-pyrrolo-[2,3-b]pyridine (L-745,870), and clozapine” (J Med Chem, 2001) come the findings set out here.

This experiment deals with T1, D(4) dopamine receptor (Homo sapiens) (UniProt P21917).
T1 sequence (whole entry): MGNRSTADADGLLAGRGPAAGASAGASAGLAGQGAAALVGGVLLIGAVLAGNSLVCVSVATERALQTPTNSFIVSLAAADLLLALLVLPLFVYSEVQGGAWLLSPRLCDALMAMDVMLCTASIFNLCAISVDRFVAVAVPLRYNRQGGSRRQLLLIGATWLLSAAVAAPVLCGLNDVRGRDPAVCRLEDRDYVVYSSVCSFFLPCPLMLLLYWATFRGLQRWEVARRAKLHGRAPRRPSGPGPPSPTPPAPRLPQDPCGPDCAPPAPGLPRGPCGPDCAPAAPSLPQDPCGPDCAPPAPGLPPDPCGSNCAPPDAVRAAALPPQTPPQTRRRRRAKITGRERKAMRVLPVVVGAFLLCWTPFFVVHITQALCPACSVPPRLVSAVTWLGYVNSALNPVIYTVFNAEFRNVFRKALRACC
The note with it: CHO-K1.
Description: Ability to displace [3H]spiperone from dopamine receptor D4.4 expressed in CHO-K1 cells
Broadly, the pKi is the negative decadic logarithm of the Ki, by convention in mol/L. A higher pKi goes with a low Ki. For the molecule `Cc1cccc2c(CN3CCN(c4ccc(Cl)cc4)CC3)cnn12`, the pKi came to 8.57. `FC(F)(F)c1cccc(N2CCN(Cc3cnn4ccccc34)CC2)c1` gave a pKi of 8.72. Turning to `CCN1CCN(Cc2cnn3ccccc23)CC1`, the pKi is 4.62. For `Cc1cccn2ncc(CN3CCN(c4ccc(Cl)cc4)CC3)c12`, the pKi is 7.3. In the case of `Clc1ccc(N2CCN(Cc3cnn4c(I)cccc34)CC2)cc1` it was 8.3; in that of `Ic1ccc(N2CCN(Cc3cnn4ccccc34)CC2)cc1`, 8.52; in that of `N#CC(C#N)=Cc1ccc(CN2CCN(c3ccc(Cl)cc3)CC2)[nH]1`, 8.02. Molecule `Clc1ccc(N2CCN(Cc3cc4ccccc4[nH]3)CC2)cc1` displayed a pKi of 7.74. Consider `Clc1cccc(N2CCN(Cc3cnn4ccc5ccccc5c34)CC2)c1`, for which the pKi is 6.1. Turning to `Clc1cccc(N2CCN(Cc3cnn4c3ccc3ccccc34)CC2)c1`, the pKi is 6.66.

On to `C#Cc1ccc(N2CCN(Cc3cnn4ccccc34)CC2)cc1`, for which the pKi amounted to 8.36. Molecule `C#Cc1cccc2c(CN3CCN(c4ccc(Cl)cc4)CC3)cnn12` came in with a pKi of 8.91. In turn, `Clc1ccc(N2CCN(Cc3ccc[nH]3)CC2)cc1` had a pKi of 7.58. `Clc1ccc(N2CCN(Cc3cc4ccccn4n3)CC2)cc1` showed a pKi of 8.66. The figure for `N#CC(C#N)=Cc1cc(CN2CCN(c3ccc(Cl)cc3)CC2)c[nH]1` is 8.24; for `Clc1ccc(N2CCN(Cc3cc[nH]c3)CC2)cc1` it is 7.41. The molecule `Clc1ccc(N2CCN(Cc3cnn4ccccc34)CC2)cc1Cl` came in with a pKi of 8.25. `Clc1ccc(N2CCN(Cc3ccccc3)CC2)cc1` came in with a pKi of 6.6.

In turn, `Fc1ccc(N2CCN(Cc3cnn4ccccc34)CC2)cc1` yielded a pKi of 7.7.

As to `OCc1ccc2c(CN3CCN(c4ccccc4)CC3)cnn2c1`, the pKi amounted to 7.71.
